Data from patent US4943570A, “Benzimidazolesulfonamides and imidazopyridinesulfonamides, and their application as drugs” (Laboratorios Del Dr. Esteve, S.A., priority 1986, dated 1990).

Columns and labels:
[1] = Acute toxicity in mice (Litchfield and Wilcoxon); format: in vivo; conditions: mouse, in vivo, po, administered orally
Method: (§1) Method of Litchfield and Wilcoxon (J. T. Litchfield and E. J. Wilcoxon: J. Pharmacol. Exp. Therap., 96, 19-113 (1949)).
(§2) The product is administered orally as a suspension in gum arabic at a concentration of 5% in double-distilled water. The volume administered is 10 - ml/kg. The 50% lethal dose (LD50) is calculated by the method cited.

gastric acid secretion = assay: Inhibition of gastric acid secretion in Shay rats (Shay's method, pylorus ligation); format: in vivo, Male Wistar rats; conditions: Rattus norvegicus, administered intraduodenally; for ED50: 2 h; for inhibition in vivo at 40 mg/kg: intraduodenal, 2 h after pylorus ligation, read-out: Percentage inhibition of gastric acid secretion
Source text: Shay's method [H. Shay; S. A. Komarov; S. S. Fels; D. Merange: M. Grvenstein; H. Siplet: Gastroenterology, 5, 43 (1945)--F. E. Visscber; P. H. Seay: A. P. Taxelaar; W. Veldkamp; M. J. Vander Brook: J. Pharmac. Exp. Ther., 110, 188 (1954)--"Animal Experiments in Pharmacological Analysis", F. R. Domer: C. C. Thomas, published by Springfield, Ill., U.S.A., 1970, p. 140].
Male Wistar rats weighing 200 to 250 grams are used in this test; they are fasted from the day preceding the day of the test, with free access to water. Groups containing a minimum of 4 animals each are used.
The rats are anesthetized with ethyl ether, a laparotomy is performed on them and their pylorus is ligated; the abdominal incision is then sewn up. The administration of the products, with the vehicle for the control group, is effected intraduodenally (i.d.) before the abdominal incision is sewn up. The dose administered in the first test is 40 mg/kg and the 50% effective dose (ED50), administered intraduodenally, is also determined in a second test. The vehicle used is gum arabic at a concentration of 5% w/v in double-distilled water.
Two hours after ligation of the pylorus, the rats are sacrificed by prolonged anesthesia with ethyl ether and the volume of gastric juice is measured; the total acidity is determined by means of a pH meter equipped with an automatic burette. For each product and each dose tested, the percentage inhibition of gastric acid secretion is determined relative to the control group.

[2] = test system: gastric lesions induced by ethanol; assay: Gastric cytoprotection: inhibition of gastric lesions induced by ethanol; format: in vivo, Male Wistar rats; conditions: 40 mg/kg oral
Method: Male Wistar rats weighing 150 to 200 grams are used in this test; they are fasted for 24 hours, but with water "ad libitum". Groups containing a minimum of 5 animals each are used.
At the beginning of the study, the rats receive the products described, or the vehicle in the case of the rats in the control group, by oral administration using a stomach tube. The dose administered for the products described is 40 mg/kg. The vehicle employed is gum arabic at a concentration of 5% w/v in double-distilled water.
Thirty minutes after the treatment, the rats receive 1 ml of absolute ethanol by oral administration using a stomach tube. One hour after the treatment with ethanol, the rats are sacrificed by prolonged anesthesia with ethyl ether, their stomachs are extracted and opened along the greater curvature and the lesions in the stomach mucosa are evaluated. For this evaluation, the hemorrhage points are counted and the size of the necrotic ulcers is measured.
For each product tested, the percentage inhibition of gastric lesions is determined relative to the control group.

[3] = test system: gastric lesions induced by stress due to immobilization and cold; assay: Ulcer-inhibiting activity: inhibition of gastric lesions induced by stress due to immobilization and cold; format: in vivo, Male Wistar rats; conditions: 40 mg/kg oral
Method: Male Wistar rats weighing […] to 200 grams are used in this test; they are fasted in individual cages for 24 hours before the study begins, but with water "ad libitum". Groups containing a minimum of 5 animals each are used.
At the start of the study, the rats receive the products described, or alternatively the vehicle in the case of the control group, by oral administration using a stomach tube. The administered dose of the products described is 40 mg/kg. The vehicle used is gum arabic at a concentration of 5% w/v in double-distilled water.
Immediately after the treatment, the rats are introduced into confined enclosures in the form of a plastic tube with a diameter of about 5 cm and a variable length which can be adapted to the size of the rat. One hour after the treatment, the rats, in their enclosures, are placed in a refrigerator at -5° C. for 3 hours. Immediately after exposure to the cold, the rats are killed by prolonged anesthesia with ethyl ether, the stomachs are extracted and opened along the greater curvature and the lesions in the stomach mucosa are evaluated. For this evaluation, the hemorrhage points are counted and the size of the necrotic ulcers is measured.
For each product and each dose tested, the percentage inhibition of gastric lesions is determined relative to the control group.

mice = assay: Acute toxicity in mice (Litchfield and Wilcoxon); format: in vivo; conditions: administered orally; female
Method: as §1, §2

[4] = relative to control (gum arabic)

Structure (SMILES) | LD50 ([1]; female) | LD50 ([1]; male) | ED50 (gastric acid secretion) | inhibition in vivo at 40 mg/kg (gastric acid secretion) | further results
O=S(=O)(NCCN1CCOCC1)c1nc2ccccc2[nH]1 [Example 6] | 2600 mg/kg | 3300 mg/kg |  |  | 
O=S(=O)(NCCCN1CCOCC1)c1nc2ccccc2[nH]1 [Example 8, N-[3-(4-Morpholinopropyl)]-1H-benzimidazole-2-sulfonamide] | 6400 mg/kg | 6400 mg/kg |  |  | 
O=S(=O)(Nc1ccc(Cl)cc1)c1nc2cc(Cl)ccc2[nH]1 [Example 16, 5-Chloro-N-(4-chlorophenyl)-1H-benzimidazoIe-2-sulfonamide] | 1500 mg/kg | 2000 mg/kg | 42.6 mg/kg | 48% | 
CCN(CC)CCCC(C)NS(=O)(=O)c1nc2cc(Cl)ccc2[nH]1 (stereo not shown) [Example 18, 5-Chloro-N-(4-diethylamino-1-methylbutyl)-1H-benzimidazole-2-sulfonamide] | 4000 mg/kg | 2000 mg/kg | 53.5 mg/kg | 41% | 
CCNS(=O)(=O)c1nc2c([N+](=O)[O-])cccc2[nH]1 [Example 21, N-Ethyl-4-nitro-1H-benzimidazole-2-sulfonamide] | > 1600 mg/kg | > 1600 mg/kg |  |  | 
O=S(=O)(NCc1ccccn1)c1nc2ccccc2[nH]1 [Example 31, N-(2-Pyridylmethyl)-1H-benzimidazole-2-sulfonamide] | > 6400 mg/kg | > 6400 mg/kg |  |  | 
NS(=O)(=O)c1nc2cc([N+](=O)[O-])ccc2[nH]1 [Example 34, 5-Nitro-1H-benzimidazole-2-sulfonamide] | > 6400 mg/kg | > 6400 mg/kg | 29.9 mg/kg | 63% | 
O=[N+]([O-])c1ccc2[nH]c(S(=O)(=O)NCCCN3CCOCC3)nc2c1 [Example 38, N-[3-(4-Morpholinopropyl)]-5-nitro-1H-benzimidazole-2-sulfonamide] | > 6400 mg/kg | > 6400 mg/kg |  |  | 
CCN(CC)S(=O)(=O)c1nc2ccc([N+](=O)[O-])cc2n1CC [Example 71, 6-nitro-1,N,N-triethyl-1H-benzimidazole-2-sulfonamide] | 6400 mg/kg | 6400 mg/kg |  |  | 
O=S1(=O)c2nc3ccccc3n2CCN1CCCN1CCOCC1 [Example 92] | 6400 mg/kg | 6400 mg/kg |  |  | 
COc1ccc(CCN2CCn3c(nc4ccccc43)S2(=O)=O)cc1OC [Example 99, 3,4-Dihydro-2H-2-[2-(3,4-dimethoxyphenylethyl)]-[1,2,5]-thiadiazino[5,6-a]benzimidazole 1,1-dioxide] | > 3200 mg/kg | > 3200 mg/kg |  |  | 
CCN1CCn2c(nc3ccc([N+](=O)[O-])cc32)S1(=O)=O [Example 127, 3,4-Dihydro-2H-2-ethyl-7-nitro-[1,2,5]-thiadiazino-[5,6-a]benzimidazole 1,1-dioxide] | > 6400 mg/kg | > 6400 mg/kg | 52.4 mg/kg | 56.3% | 
CCN1CCn2c(nc3cc([N+](=O)[O-])ccc32)S1(=O)=O [Example 128, 3,4-Dihydro-2H-2-ethyl-8-nitro-[1,2,5]-thiadiazino-[5,6-a]benzimidazole 1,1-dioxide] | > 3200 mg/kg | > 2200 mg/kg |  |  | 
CCCCN1CCn2c(nc3cc([N+](=O)[O-])ccc32)S1(=O)=O [Example 133, 2H-2-Butyl-3,4-dihydro-8-nitro-[1,2,5]-thiadiazino-[5,6-a]benzimidazole 1,1-dioxide] | > 3200 mg/kg | > 3200 mg/kg | 58.3 mg/kg | 40% | 
CCCCN1CCn2c(nc3ccc([N+](=O)[O-])cc32)S1(=O)=O [Example 134, 2H-2-butyl-3,4-dihydro-7-nitro-[1,2,5]-thiadiazino[5,6-a]benzimidazole 1,1-dioxide] | > 3200 mg/kg | > 3200 mg/kg | 20.7 mg/kg | 70.3% | 
O=[N+]([O-])c1ccc2nc3n(c2c1)CCN(CCCN1CCOCC1)S3(=O)=O [Example 142] |  |  | 17.5 mg/kg | 79.4% | Evaluation of the lesions (x ± standard deviation) [2]: 0; Inhibition of gastric lesions [2, 4]: 100%
CCN(CC)CCCC(C)N1CCn2c(nc3ccc([N+](=O)[O-])cc32)S1(=O)=O (stereo not shown) [Example 144, 2H-2-(4-Diethylamino-1-methylbutyl)-3,4-dihydro-7-nitro-[1,2,5,]-thiadiazino[5,6-a]benzimidazole 1,1-dioxide] |  |  | 10 mg/kg | 93.7% | Inhibition of gastric lesions [3, 4]: 100%; Evaluation of the lesions (x ± standard deviation) ([3]; stress (immobilization and cold), 10 rats): 0
CCN1C(c2ccc([N+](=O)[O-])cc2)=Cn2c(nc3ccc([N+](=O)[O-])cc32)S1(=O)=O [Example 179, 2H-2-Ethyl-7-nitro-3-(4-nitrophenyl)-[1,2,5]-thiadiazino-[5,6-a]benzimidazole 1,1-dioxide] |  | > 6400 mg/kg |  |  | LD50 (mice): > 6400 mg/kg
